Where “and” joins values, the source holds several entries; their conditions need not be identical. Equal values may be shown once. Read-outs that look alike come from different tables or passages of the source.
Test: EFdA Rat PK Studies (subcutaneous and intramuscular groups), plasma concentration by LC-MS/MS
Format: in vivo, Wistar Han rats
Conditions: for Assayed Concentrations of EFdA, individual rats / Assayed Concentrations of EFdA, Mean / concentration at 0.5 h / concentration at 1 h / concentration at 4 h / concentration at 7 h / concentration at 24 h / concentration at 48 h / concentration at 72 h / concentration at 6 day / concentration at 25 day: plasma; for concentration at 0.5 h / concentration at 1 h / concentration at 4 h / concentration at 7 h / concentration at 24 h / concentration at 48 h / concentration at 72 h / concentration at 6 day / concentration at 25 day: male, Wistar Han, rat
Text: Protocol for EFdA Rat PK Studies Conducted at Charles River Laboratories, NY.
A total of seven naïve male Wistar Han rats, 200-250 g, were received from Charles River Laboratories, Kingston, N.Y. All animals were received from the supplier equipped with a surgically-implanted jugular vein catheter (JVC) for blood sample collection. Following an acclimation period, the animals were assigned to the study based on acceptable health as determined by a staff veterinarian and catheter patency. Animals were placed into two groups of 3 rats per group. Fasting of the animals before or after dosing was not required.
On Day 1 each animal in Group 1 received a single subcutaneous injection of prepared test article at a target dose level of 20 mg/kg and at a dose volume of 0.33 mL/kg. Each animal in Group 2 received a single intramuscular injection of prepared test article into a thigh muscle at a target dose level of 20 mg/kg and at a dose volume of 0.33 mL/kg. The injection sites were shaved prior to dosing and identified with an indelible marker for daily monitoring during the study. The animals were manually restrained for dosing and were not sedated. The dose suspension was mixed well by inversion before each dose to ensure homogeneity. All dosing was performed as detailed in the study protocol and was completed without incident. […] In addition, all animals are monitored twice daily by the veterinary staff for clinical abnormalities.
Blood samples were collected from the study animals as detailed in the sample collection Table 2 below.
Each blood sample for PK (250 μL) was collected from the jugular vein catheter or by venipuncture of a jugular vein. The blood was transferred to a tube containing NaF/Na2EDTA anticoagulant and inverted several times to mix. The blood samples were maintained on crushed ice before centrifugation at 2200×g for 10 minutes at 5° C. to isolate plasma. The resulting plasma samples were transferred to individual polypropylene tubes in a 96-well plate format and immediately placed on dry ice until storage at nominally −80° C. prior to analysis.
The PK plasma samples were analyzed by the Testing Facility to determine the concentration of EFdA using an LC-MS/MS Research Grade Assay (RGA-1) with sensitivity to 0.1 ng/mL. Following review of sample analysis data through Day 29, further sample analysis was discontinued and the study was terminated. The individual and mean plasma concentration-time data are presented in Tables 3 and 4 and mean concentration-time profiles are shown in FIGS. 1 and 2.

Structure (SMILES): C#C[C@]1(CO)O[C@@H](n2cnc3c(N)nc(F)nc32)C[C@@H]1O [EFdA, (2R,3S,5R)-5-(6-amino-2-fluoro-9H-purin-9-yl)-2-ethynyl-2-(hydroxymethyl)tetrahydrofuran-3-ol]
- Assayed Concentrations of EFdA, individual rats (0.5 hr, IM 20 mg/kg): 1150 ng/mL and 684 ng/mL
- Assayed Concentrations of EFdA, individual rats (0.5 hr, SC 20 mg/kg, 20 mg/kg): 1000 ng/mL and 640 ng/mL and 2210 ng/mL
- Assayed Concentrations of EFdA, individual rats (1 hr, IM 20 mg/kg): 1640 ng/mL and 1400 ng/mL
- Assayed Concentrations of EFdA, individual rats (1 hr, SC 20 mg/kg, 20 mg/kg): 1160 ng/mL and 1040 ng/mL and 3030 ng/mL
- Assayed Concentrations of EFdA, individual rats (4 hr, IM 20 mg/kg): 436 ng/mL and 733 ng/mL
- Assayed Concentrations of EFdA, individual rats (4 hr, SC 20 mg/kg, 20 mg/kg): 676 ng/mL and 708 ng/mL
- Assayed Concentrations of EFdA, individual rats (7 hr, IM 20 mg/kg): 241 ng/mL and 191 ng/mL and 426 ng/mL
- Assayed Concentrations of EFdA, individual rats (7 hr, SC 20 mg/kg, 20 mg/kg): 372 ng/mL and 216 ng/mL
- Assayed Concentrations of EFdA, individual rats (24 hr, IM 20 mg/kg): 24.7 ng/mL and 1.96 ng/mL and 32.6 ng/mL
- Assayed Concentrations of EFdA, individual rats (24 hr, SC 20 mg/kg, 20 mg/kg): 6.70 ng/mL and 14.7 ng/mL and 2.53 ng/mL
- Assayed Concentrations of EFdA, individual rats (48 hr, IM 20 mg/kg): 5.25 ng/mL and 0.369 ng/mL and 0.915 ng/mL
- Assayed Concentrations of EFdA, individual rats (48 hr, SC 20 mg/kg, 20 mg/kg): 0.713 ng/mL and 0.543 ng/mL
- Assayed Concentrations of EFdA, individual rats (72 hr, IM 20 mg/kg): 0.316 ng/mL and 0.241 ng/mL
- Assayed Concentrations of EFdA, individual rats (72 hr, SC 20 mg/kg, 20 mg/kg): 0.270 ng/mL and 0.201 ng/mL
- Assayed Concentrations of EFdA, individual rats (Day 6, IM 20 mg/kg): BQL (BQL—Below Quantitation Limit, <0.100 ng/mL) and 0.103 ng/mL
- Assayed Concentrations of EFdA, individual rats (Day 6, SC 20 mg/kg, 20 mg/kg): BQL (BQL—Below Quantitation Limit, <0.100 ng/mL)
- Assayed Concentrations of EFdA, Mean (Day 8, IM 20 mg/kg): BQL (BQL—Below Quantitation Limit, <0.100 ng/mL)
- Assayed Concentrations of EFdA, individual rats (Day 8, IM 20 mg/kg): BQL (BQL—Below Quantitation Limit, <0.100 ng/mL)
- Assayed Concentrations of EFdA, Mean (Day 8, SC 20 mg/kg): BQL (BQL—Below Quantitation Limit, <0.100 ng/mL)
- Assayed Concentrations of EFdA, individual rats (Day 8, SC 20 mg/kg): BQL (BQL—Below Quantitation Limit, <0.100 ng/mL)
- Assayed Concentrations of EFdA, Mean (Day 11, IM 20 mg/kg): BQL (BQL—Below Quantitation Limit, <0.100 ng/mL)
- Assayed Concentrations of EFdA, individual rats (Day 11, IM 20 mg/kg): BQL (BQL—Below Quantitation Limit, <0.100 ng/mL)
- Assayed Concentrations of EFdA, Mean (Day 11, SC 20 mg/kg): BQL (BQL—Below Quantitation Limit, <0.100 ng/mL)
- Assayed Concentrations of EFdA, individual rats (Day 11, SC 20 mg/kg): BQL (BQL—Below Quantitation Limit, <0.100 ng/mL)
- Assayed Concentrations of EFdA, Mean (Day 15, IM 20 mg/kg): BQL (BQL—Below Quantitation Limit, <0.100 ng/mL)
- Assayed Concentrations of EFdA, individual rats (Day 15, IM 20 mg/kg): BQL (BQL—Below Quantitation Limit, <0.100 ng/mL)
- Assayed Concentrations of EFdA, Mean (Day 15, SC 20 mg/kg): BQL (BQL—Below Quantitation Limit, <0.100 ng/mL)
- Assayed Concentrations of EFdA, individual rats (Day 15, SC 20 mg/kg): BQL (BQL—Below Quantitation Limit, <0.100 ng/mL)
- Assayed Concentrations of EFdA, Mean (Day 22, IM 20 mg/kg): BQL (BQL—Below Quantitation Limit, <0.100 ng/mL)
- Assayed Concentrations of EFdA, individual rats (Day 22, IM 20 mg/kg): BQL (BQL—Below Quantitation Limit, <0.100 ng/mL)
- Assayed Concentrations of EFdA, Mean (Day 22, SC 20 mg/kg): BQL (BQL—Below Quantitation Limit, <0.100 ng/mL)
- Assayed Concentrations of EFdA, individual rats (Day 22, SC 20 mg/kg): BQL (BQL—Below Quantitation Limit, <0.100 ng/mL)
- Assayed Concentrations of EFdA, Mean (Day 25, IM 20 mg/kg): BQL (BQL—Below Quantitation Limit, <0.100 ng/mL)
- Assayed Concentrations of EFdA, individual rats (Day 25, IM 20 mg/kg): BQL (BQL—Below Quantitation Limit, <0.100 ng/mL)
- Assayed Concentrations of EFdA, individual rats (Day 25, SC 20 mg/kg, 20 mg/kg): BQL (BQL—Below Quantitation Limit, <0.100 ng/mL)
- Assayed Concentrations of EFdA, Mean (Day 29, IM 20 mg/kg): BQL (BQL—Below Quantitation Limit, <0.100 ng/mL)
- Assayed Concentrations of EFdA, individual rats (Day 29, IM 20 mg/kg): BQL (BQL—Below Quantitation Limit, <0.100 ng/mL)
- Assayed Concentrations of EFdA, Mean (Day 29, SC 20 mg/kg): BQL (BQL—Below Quantitation Limit, <0.100 ng/mL)
- Assayed Concentrations of EFdA, individual rats (Day 29, SC 20 mg/kg): BQL (BQL—Below Quantitation Limit, <0.100 ng/mL)
- concentration at 0.5 h (intramuscular, 20 mg/kg, 0.5 hr, IM 20 mg/kg, read-out: Assayed Concentrations of EFdA, Mean): 921 ng/mL
- concentration at 0.5 h (intramuscular, 20 mg/kg, 0.5 hr, IM 20 mg/kg, read-out: Assayed Concentrations of EFdA, individual rats): 929 ng/mL
- concentration at 1 h (intramuscular, 20 mg/kg, 1 hr, IM 20 mg/kg, read-out: Assayed Concentrations of EFdA, Mean): 1330 ng/mL
- concentration at 1 h (intramuscular, 20 mg/kg, 1 hr, IM 20 mg/kg, read-out: Assayed Concentrations of EFdA, individual rats): 957 ng/mL
- concentration at 4 h (intramuscular, 20 mg/kg, 4 hr, IM 20 mg/kg, read-out: Assayed Concentrations of EFdA, Mean): 610 ng/mL
- concentration at 4 h (intramuscular, 20 mg/kg, 4 hr, IM 20 mg/kg, read-out: Assayed Concentrations of EFdA, individual rats): 662 ng/mL
- concentration at 7 h (intramuscular, 20 mg/kg, 7 hr, IM 20 mg/kg, read-out: Assayed Concentrations of EFdA, Mean): 286 ng/mL
- concentration at 24 h (intramuscular, 20 mg/kg, 24 hr, IM 20 mg/kg, read-out: Assayed Concentrations of EFdA, Mean): 19.8 ng/mL
- concentration at 48 h (intramuscular, 20 mg/kg, 48 hr, IM 20 mg/kg, read-out: Assayed Concentrations of EFdA, Mean): 2.18 ng/mL
- concentration at 72 h (intramuscular, 20 mg/kg, 72 hr, IM 20 mg/kg, read-out: Assayed Concentrations of EFdA, Mean): 0.29 ng/mL
- concentration at 72 h (intramuscular, 20 mg/kg, 72 hr, IM 20 mg/kg, read-out: Assayed Concentrations of EFdA, individual rats): 0.301 ng/mL
- concentration at 6 day (intramuscular, 20 mg/kg, Day 6, IM 20 mg/kg, read-out: Assayed Concentrations of EFdA, Mean): 0.1 ng/mL
- concentration at 6 day (intramuscular, 20 mg/kg, Day 6, IM 20 mg/kg, read-out: Assayed Concentrations of EFdA, individual rats): 0.102 ng/mL
- concentration at 0.5 h (sc, 20 mg/kg, 0.5 hr, SC 20 mg/kg, read-out: Assayed Concentrations of EFdA, Mean): 1280 ng/mL
- concentration at 1 h (sc, 20 mg/kg, 1 hr, SC 20 mg/kg, read-out: Assayed Concentrations of EFdA, Mean): 1430 ng/mL
- concentration at 4 h (sc, 20 mg/kg, 4 hr, SC 20 mg/kg, read-out: Assayed Concentrations of EFdA, Mean): 639 ng/mL
- concentration at 4 h (sc, 20 mg/kg, 4 hr, SC 20 mg/kg, read-out: Assayed Concentrations of EFdA, individual rats): 534 ng/mL
- concentration at 7 h (sc, 20 mg/kg, 7 hr, SC 20 mg/kg, read-out: Assayed Concentrations of EFdA, Mean): 303 ng/mL
- concentration at 7 h (sc, 20 mg/kg, 7 hr, SC 20 mg/kg, read-out: Assayed Concentrations of EFdA, individual rats): 320 ng/mL
- concentration at 24 h (sc, 20 mg/kg, 24 hr, SC 20 mg/kg, read-out: Assayed Concentrations of EFdA, Mean): 7.98 ng/mL
- concentration at 48 h (sc, 20 mg/kg, 48 hr, SC 20 mg/kg, read-out: Assayed Concentrations of EFdA, Mean): 0.68 ng/mL
- concentration at 48 h (sc, 20 mg/kg, 48 hr, SC 20 mg/kg, read-out: Assayed Concentrations of EFdA, individual rats): 0.771 ng/mL
- concentration at 72 h (sc, 20 mg/kg, 72 hr, SC 20 mg/kg, read-out: Assayed Concentrations of EFdA, Mean): 0.241 ng/mL
- concentration at 72 h (sc, 20 mg/kg, 72 hr, SC 20 mg/kg, read-out: Assayed Concentrations of EFdA, individual rats): 0.251 ng/mL
- concentration at 6 day (sc, 20 mg/kg, Day 6, SC 20 mg/kg, read-out: Assayed Concentrations of EFdA, Mean): 0.04 ng/mL
- concentration at 6 day (sc, 20 mg/kg, Day 6, SC 20 mg/kg, read-out: Assayed Concentrations of EFdA, individual rats): 0.117 ng/mL
- concentration at 25 day (sc, 20 mg/kg, Day 25, SC 20 mg/kg, read-out: Assayed Concentrations of EFdA, Mean): 0.221 ng/mL
- concentration at 25 day (sc, 20 mg/kg, Day 25, SC 20 mg/kg, read-out: Assayed Concentrations of EFdA, individual rats): 0.221 ng/mL
- detectable duration of exposure of EFdA (rat IM and SC administration of 20 mg/kg): less than 8 days
